In this assay the test system is cancer cells. In words: MTS cell growth inhibition assay (72 hours). Format: cell-based. In short, it runs like this:
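Cells in DMEM with 1% FBS, seeded 18 h, then compound-treated 72 h at 37 °C. Viability by MTS/PMS for 4 h, formazan absorbance at 492 nm; IC50 taken as concentration giving 50% absorbance drop, activity banded by percent inhibition.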

Setting [1] is: Homo sapiens, DLD-1, 72 h, DLD-1 cells, read-out: DLD-1 MTS 72 hr at 10 μM.
Where [2] appears, read: Homo sapiens, KATO III, 72 h, KATO III cells, read-out: KATO III MTS 72 hr at 10 μM.
The mark [3] stands for this setting: Homo sapiens, MDA-MB-231, 72 h, MDA-MB-231 cells, read-out: MDA-MB-231 MTS 72 hr at 10 μM.
The mark [4] stands for this setting: Homo sapiens, NCI-H1299, 72 h, NCI-H1299 cells, read-out: NCI-H1299 MTS 72 hr at 10 μM.
Setting [5] is: PaCa-2, 72 h, PACA-2 cells, read-out: PACA-2 MTS 72 hr at 10 μM.

Molecules are shown by their SMILES. Read-outs that look alike come from different tables or passages of the source. A value given as a limit tells only on which side of the number the result lay.

As to `Nc1nc(NC2Cc3ccccc3N(C(=O)Nc3cc(C(F)(F)F)ccc3F)C2)c2cn[nH]c2n1` (stereo not shown) [Compound 108, 3-(6-amino-1H-pyrazolo[3,4-d]pyrimidin-4-ylamino)-N-(2-fluoro-5-(trifluoromethyl)phenyl)-3,4-dihydroquinoline-1(2H)-carboxamide], the inhibition at 10 µM was less than 50% under setting [1]; less than 50% under setting [2]; less than 50% under setting [3]; less than 50% under setting [4]; less than 50% under setting [5].

As for `COc1ccc(CCNC(=O)N2CC(Nc3nc(N)nc4[nH]ncc34)Cc3ccccc32)cc1OC` (stereo not shown) [Compound 109, 3-(6-amino-1H-pyrazolo[3,4-d]pyrimidin-4-ylamino)-N-(3,4-dimethoxyphenethyl)-3,4-dihydroquinoline-1(2H)-carboxamide], the inhibition at 10 µM reads like this: under setting [1], less than 50%; under setting [2], less than 50%; under setting [3], less than 50%; under setting [4], less than 50%; under setting [5], less than 50%.

In the case of `Cc1ccc(CNC(=O)N2CC(Nc3nc(N)nc4[nH]ncc34)Cc3ccccc32)cc1` (stereo not shown) [Compound 110, 3-(6-amino-1H-pyrazolo[3,4-d]pyrimidin-4-ylamino)-N-(4-methylbenzyl)-3,4-dihydroquinoline-1(2H)-carboxamide], the inhibition at 10 µM by setting is: under setting [1], less than 50%; under setting [2], less than 50%; under setting [3], less than 50%; under setting [4], less than 50%; under setting [5], less than 50%.

For the compound `Cc1ccccc1CNC(=O)N1CC(Nc2nc(N)nc3[nH]ncc23)Cc2ccccc21` (stereo not shown) [Compound 111, 3-(6-amino-1H-pyrazolo[3,4-d]pyrimidin-4-ylamino)-N-(2-methylbenzyl)-3,4-dihydroquinoline-1(2H)-carboxamide], the inhibition at 10 µM reads like this: under setting [1], less than 50%; under setting [2], less than 50%; under setting [3], less than 50%; under setting [4], less than 50%; under setting [5], less than 50%.

With `CC(C)c1cccc(C(C)C)c1NC(=O)N1CC(Nc2nc(N)nc3[nH]ncc23)Cc2ccccc21` (stereo not shown) [Compound 112, 3-(6-amino-1H-pyrazolo[3,4-d]pyrimidin-4-ylamino)-N-(2,6-diisopropylphenyl)-3,4-dihydroquinoline-1(2H)-carboxamide], the inhibition at 10 µM by setting is: under setting [1], less than 50%; under setting [2], less than 50%; under setting [3], less than 50%; under setting [4], less than 50%; under setting [5], less than 50%.

Turning to `Cc1cc([N+](=O)[O-])ccc1NC(=O)N1CC(Nc2nc(N)nc3[nH]ncc23)Cc2ccccc21` (stereo not shown) [Compound 113, 3-(6-amino-1H-pyrazolo[3,4-d]pyrimidin-4-ylamino)-N-(2-methyl-4-nitrophenyl)-3,4-dihydroquinoline-1(2H)-carboxamide], the inhibition at 10 µM under setting [1] is greater than 79%; the inhibition at 10 µM under setting [2] is greater than 79%; the inhibition at 10 µM under setting [3] is greater than 79%; the inhibition at 10 µM under setting [4] is greater than 79%; the inhibition at 10 µM under setting [5] was greater than 79%.

With `CCOC(=O)c1ccc(NC(=O)N2CC(Nc3nc(N)nc4[nH]ncc34)Cc3ccccc32)cc1` (stereo not shown) [Compound 114, ethyl 4-(3-(6-amino-1H-pyrazolo[3,4-d]pyrimidin-4-ylamino)-1,2,3,4-tetrahydroquinoline-1-carboxamido)benzoate], the inhibition at 10 µM is greater than 79% under setting [1]; less than 50% under setting [2]; less than 50% under setting [3]; less than 50% under setting [4]; less than 50% under setting [5].

Consider `Nc1nc(NC2Cc3ccccc3N(C(=O)NCc3ccc(F)cc3)C2)c2cn[nH]c2n1` (stereo not shown) [Compound 115, 3-(6-amino-1H-pyrazolo[3,4-d]pyrimidin-4-ylamino)-N-(4-fluorobenzyl)-3,4-dihydroquinoline-1(2H)-carboxamide], for which the inhibition at 10 µM under setting [1] is less than 50%; the inhibition at 10 µM under setting [2] was less than 50%; the inhibition at 10 µM under setting [3] is less than 50%; the inhibition at 10 µM under setting [4] is less than 50%; the inhibition at 10 µM under setting [5] is less than 50%.

With `COc1ccc(CCNC(=O)N2CC(Nc3nc(N)nc4[nH]ncc34)Cc3ccccc32)cc1` (stereo not shown) [Compound 116, 3-(6-amino-1H-pyrazolo[3,4-d]pyrimidin-4-ylamino)-N-(4-methoxyphenethyl)-3,4-dihydroquinoline-1(2H)-carboxamide], the inhibition at 10 µM runs as follows: under setting [1], less than 50%; under setting [2], less than 50%; under setting [3], less than 50%; under setting [4], less than 50%; under setting [5], less than 50%.

With `Nc1nc(NC2Cc3ccccc3N(C(=O)Nc3ccc(C(F)(F)F)cc3)C2)c2cn[nH]c2n1` (stereo not shown) [Compound 117, 3-(6-amino-1H-pyrazolo[3,4-d]pyrimidin-4-ylamino)-N-(4-(trifluoromethyl)phenyl)-3,4-dihydroquinoline-1(2H)-carboxamide], the inhibition at 10 µM reads like this: under setting [1], less than 50%; under setting [2], less than 50%; under setting [3], less than 50%; under setting [4], less than 50%; under setting [5], less than 50%.

With `Nc1nc(NC2Cc3ccccc3N(C(=O)Nc3ccccc3Cl)C2)c2cn[nH]c2n1` (stereo not shown) [Compound 118, 3-(6-amino-1H-pyrazolo[3,4-d]pyrimidin-4-ylamino)-N-(2-chlorophenyl)-3,4-dihydroquinoline-1(2H)-carboxamide], the inhibition at 10 µM is less than 50% under setting [1]; less than 50% under setting [2]; less than 50% under setting [3]; less than 50% under setting [4]; less than 50% under setting [5].

`COC(=O)c1ccccc1NC(=O)N1CC(Nc2nc(N)nc3[nH]ncc23)Cc2ccccc21` (stereo not shown) [Compound 119, methyl 2-(3-(6-amino-1H-pyrazolo[3,4-d]pyrimidin-4-ylamino)-1,2,3,4-tetrahydroquinoline-1-carboxamido)benzoate]: the inhibition at 10 µM by setting is: under setting [1], greater than 79%; under setting [2], greater than 79%; under setting [3], greater than 79%; under setting [4], greater than 79%; under setting [5], greater than 79%.

In the case of `Nc1nc(NC2Cc3ccccc3N(C(=O)Nc3ccc(F)c(F)c3F)C2)c2cn[nH]c2n1` (stereo not shown) [Compound 120, 3-(6-amino-1H-pyrazolo[3,4-d]pyrimidin-4-ylamino)-N-(2,3,4-trifluorophenyl)-3,4-dihydroquinoline-1(2H)-carboxamide], the inhibition at 10 µM under setting [1] is greater than 79%; the inhibition at 10 µM under setting [2] is greater than 79%; the inhibition at 10 µM under setting [3] lay within 50 to 79%; the inhibition at 10 µM under setting [4] was less than 50%; the inhibition at 10 µM under setting [5] is greater than 79%.

In the case of `Cc1ccc(CN2CC(Nc3nc(N)nc4[nH]ncc34)Cc3ccccc32)cc1C` (stereo not shown) [Compound 130, N4-[1-(3,4-dimethylbenzyl)-1,2,3,4-tetrahydroquinolin-3-yl]-1H-pyrazolo[3,4-d]pyrimidine-4,6-diamine], the inhibition at 10 µM reads like this: under setting [1], less than 50%; under setting [2], less than 50%; under setting [3], less than 50%; under setting [4], less than 50%; under setting [5], less than 50%.

For the origin of these results see patent publication US8273754B2, “Substituted 1H-pyrazolo[3,4-D]pyrimidine-6-amine compounds” (ArQule, Inc., priority 2008, dated 2012).
